17 compounds from article PMC7889231 (Journal of Enzyme Inhibition and Medicinal Chemistry, 2021) can be followed below.

Like-named read-outs stand apart in the source and are kept apart here.

For one data set, the system named is MCF-7. In words: MTT anti-proliferative assay, MCF-7. The settings on record: Homo sapiens. The class given is cell-based, human.
In another data set the test system is HCT-116. In words: MTT anti-proliferative assay, HCT-116. The class given is cell-based, human. (Tetrazolium assays rely on reduction of a dye to a coloured formazan, in cell work by metabolically active cells.)
A further data set deals with HepG-2. In words: MTT anti-proliferative assay, HepG-2. The format is cell-based, human.
The subject of data set [1] is HepG-2, HCT-116, and MCF-7. In words: MTT anti-proliferative assay, ranges stated over several cell lines. The class given is cell-based. The settings on record: Homo sapiens.
Where [2] appears, read: MCF7, MTT, mean ± SD of three experiments, read-out: IC50 MCF-7.
Where [3] appears, read: Homo sapiens, HCT-116, MTT, mean ± SD of three experiments, read-out: IC50 HCT-116.
Setting [4] is: MTT, mean ± SD of three experiments, read-out: IC50 HCT-116.
[5] abbreviates: Homo sapiens, HepG2, MTT, mean ± SD of three experiments, read-out: IC50 HepG-2.
Where [6] appears, read: MTT, mean ± SD of three experiments, read-out: IC50 HepG-2.
Where [7] appears, read: range over HepG-2, HCT-116 and MCF-7 and over the listed compounds, read-out: IC50 values ranging (all tested cell lines).

The melting point is the temperature, or range, at which the solid turns liquid. As usually defined, the IC50 is the concentration needed to halve the response being measured. `COc1ccc2nc(Cl)c(C3CC(c4cc(OC)c(OC)c(OC)c4)=NN3)cc2c1` (stereo not shown) [Compound 10, 2-Chloro-6-methoxy-3-[3–(3,4,5-trimethoxyphenyl)-4,5-dihydro-1H-pyrazol-5-yl]quinoline] returned a melting point of 114 to 115 °C. Moreover, the IC50 with MCF-7 (setting [2]) turned out to be 25.1 ± 1.2 µM. In the data set on HCT-116 (setting [3]), the 50% inhibitory concentration (IC50) was 15.4 µM. For the same compound, the IC50 in the data set on HCT-116 (setting [4]) amounted to 17.4 ± 1.1 µM. In the data set on HepG-2 (setting [5]), the half-inhibitory concentration (IC50) came to 17.4 µM. Besides, the IC50 with HepG-2 (setting [6]) is 15.4 ± 0.9 µM.

`COc1ccc2nc(Cl)c(C3CC(c4ccc(Cl)cc4)=NN3C(N)=O)cc2c1` (stereo not shown) [Compound 17, 5–(2-Chloro-6-methoxyquinolin-3-yl)-3–(4-chlorophenyl)-4,5-dihydro-1H-pyrazole-1-carboxamide]: the melting point lay within 135 to 136 °C. Moreover, the 50% inhibitory concentration (IC50) in the data set with MCF-7 (setting [2]) turned out to be 15.9 ± 0.6 µM. In addition, in the data set with HCT-116 (setting [3]), the half-maximal inhibitory concentration (IC50) is 11.4 ± 0.4 µM. The IC50 with HepG-2 (setting [5]) came to 12.7 ± 0.5 µM. Besides, the half-maximal inhibitory concentration (IC50) in data set [1] (setting [7]) lay within 10.2 to 17.6 µM.

`COc1ccc2nc(Cl)c(C3CC(c4ccc(N)cc4)=NN3C(N)=S)cc2c1` (stereo not shown) [Compound 15, 3–(4-Aminophenyl)-5–(2-chloro-6-methoxyquinolin-3-yl)-4,5-dihydro-1H-pyrazole-1-carbothioamide] displayed a melting point of 123 to 124 °C. Further, the IC50 in the data set with MCF-7 (setting [2]) worked out at 13.6 ± 0.7 µM. Further, the half-maximal inhibitory concentration (IC50) with HCT-116 (setting [3]) worked out at 11.6 ± 0.9 µM. Besides, in the data set on HepG-2 (setting [5]), the IC50 was found to be 10.2 ± 0.4 µM. In addition, the IC50 in data set [1] (setting [7]) is 10.2 to 17.6 µM.

In turn, `COc1ccc2nc(Cl)c(-c3cc(-c4ccc(N)cc4)nc(=S)[nH]3)cc2c1` [Compound 27, 4–(4-Aminophenyl)-6–(2-chloro-6-methoxyquinolin-3-yl)pyrimidine-2(1H)-thione] yielded a melting point of 146 to 147 °C. Further, the IC50 with MCF-7 (setting [2]) was 24.3 ± 0.9 µM. Moreover, the IC50 with HCT-116 (setting [3]) came to 22.4 ± 0.5 µM. The IC50 in the data set with HepG-2 (setting [5]) was found to be 16.3 ± 0.4 µM.

`COc1ccc2nc(Cl)c(C3CC(c4cc(OC)c(OC)c(OC)c4)=NN3C(N)=O)cc2c1` (stereo not shown) [Compound 19, 5–(2-Chloro-6-methoxyquinolin-3-yl)-3–(3,4,5-trimethoxyphenyl)-4,5-dihydro-1H-pyrazole-1-carboxamide] yielded a melting point of 117 to 118 °C. Besides, the IC50 in the data set on MCF-7 (setting [2]) was 9.04 ± 0.5 µM. The IC50 with HCT-116 (setting [3]) stood at 7.38 ± 0.4 µM. Moreover, the IC50 with HepG-2 (setting [5]) was 10.9 ± 0.5 µM. Besides, the IC50 in data set [1] (range over HCT-116 and MCF-7 and over the listed compounds, read-out: IC50 values ranging (HCT-116 and MCF-7)) is 6.48 to 10.3 µM.

Take `COc1ccc2nc(Cl)c(C3CC(c4ccc(N)cc4)=NN3C(N)=O)cc2c1` (stereo not shown) [Compound 18, 3–(4-Aminophenyl)-5–(2-chloro-6-methoxyquinolin-3-yl)-4,5-dihydro-1H-pyrazole-1-carboxamide]: the melting point lay in the range of 130 to 131 °C. Further, in the data set on MCF-7 (setting [2]), the IC50 was found to be 13.7 ± 0.8 µM. Also, in the data set with HCT-116 (setting [3]), the half-maximal inhibitory concentration (IC50) was found to be 10.4 ± 0.3 µM. Also, the IC50 with HepG-2 (setting [5]) turned out to be 10.2 ± 0.4 µM. Also, the IC50 in data set [1] (setting [7]) lay in the range of 10.2 to 17.6 µM.

With `COc1ccc2nc(Cl)c(C3CC(c4cc(OC)c(OC)c(OC)c4)=NN3C(N)=S)cc2c1` (stereo not shown) [Compound 16, 5–(2-Chloro-6-methoxyquinolin-3-yl)-3–(3,4,5-trimethoxyphenyl)-4,5-dihydro-1H-pyrazole-1-carbothioamide], the melting point lay in the range of 121 to 122 °C. For the same compound, the IC50 in the data set with MCF-7 (setting [2]) was determined as 13.9 ± 0.3 µM. Moreover, the concentration for half-maximal inhibition (IC50) with HCT-116 (setting [3]) stood at 9.3 µM. Besides, in the data set with HCT-116 (setting [4]), the 50% inhibitory concentration (IC50) amounted to 8.87 ± 0.3 µM. The concentration for half-maximal inhibition (IC50) in the data set with HepG-2 (setting [5]) turned out to be 8.87 µM. In addition, in the data set with HepG-2 (setting [6]), the IC50 is 9.3 ± 0.3 µM.

With `COc1ccc2nc(Cl)c(-c3cc(-c4ccc(Cl)cc4)nc(N)n3)cc2c1` [Compound 29, 4–(2-Chloro-6-methoxyquinolin-3-yl)-6–(4-chlorophenyl)pyrimidin-2-amine], the melting point is 195 to 196 °C. Moreover, in the data set with MCF-7 (setting [2]), the half-inhibitory concentration (IC50) came to 17.6 ± 0.8 µM. For the same compound, the IC50 in the data set on HCT-116 (setting [3]) amounted to 13 ± 0.6 µM. Further, the IC50 with HepG-2 (setting [5]) is 16.5 ± 0.8 µM. The IC50 in data set [1] (setting [7]) was in the range of 10.2 to 17.6 µM.

`COc1ccc2nc(Cl)c(/C=C/C(=O)c3ccc(Cl)cc3)cc2c1` [Compound 5, (E)-3–(2-Chloro-6-methoxyquinolin-3-yl)-1–(4-chlorophenyl)prop-2-en-1-one]: the melting point is 135 to 136 °C. Further, the 50% inhibitory concentration (IC50) with MCF-7 (setting [2]) turned out to be 32.2 ± 2 µM. For the same compound, the concentration for half-maximal inhibition (IC50) with HCT-116 (setting [3]) came to 28.9 ± 1.7 µM. Moreover, in the data set with HepG-2 (setting [5]), the concentration for half-maximal inhibition (IC50) is 29.2 ± 1.9 µM. Also, the IC50 in data set [1] (setting [7]) is 22.4 to 45.5 µM.

Consider `COc1ccc2nc(Cl)c(-c3cc(-c4ccc(N)cc4)nc(N)n3)cc2c1` [Compound 30, 4–(4-Aminophenyl)-6–(2-chloro-6-methoxyquinolin-3-yl)pyrimidin-2-amine], for which the melting point was 175 to 176 °C. For the same compound, the 50% inhibitory concentration (IC50) in the data set on MCF-7 (setting [2]) turned out to be 33.8 ± 1.5 µM. For the same compound, the IC50 with HCT-116 (setting [3]) is 32.7 ± 0.9 µM. Also, the IC50 in the data set on HepG-2 (setting [5]) turned out to be 28.5 ± 1.3 µM. Moreover, the IC50 in data set [1] (setting [7]) lay within 22.4 to 45.5 µM.

Regarding `COc1ccc2nc(Cl)c(C3CC(c4cc(OC)c(OC)c(OC)c4)=NO3)cc2c1` (stereo not shown) [Compound 13, 5–(2-Chloro-6-methoxyquinolin-3-yl)-3–(3,4,5-trimethoxyphenyl)-4,5-dihydroisoxazole], the melting point was in the range of 133 to 134 °C. For the same compound, the concentration for half-maximal inhibition (IC50) with MCF-7 (setting [2]) is 17 ± 1.2 µM. Besides, in the data set with HCT-116 (setting [3]), the IC50 came out at 12.9 µM. For the same compound, the IC50 in the data set with HCT-116 (setting [4]) stood at 9.96 ± 0.3 µM. Besides, the half-maximal inhibitory concentration (IC50) in the data set with HepG-2 (setting [5]) was found to be 9.96 µM. Moreover, the IC50 with HepG-2 (setting [6]) stood at 12.9 ± 0.6 µM.

As for `COc1ccc2nc(Cl)c(C3CC(c4ccc(Cl)cc4)=NN3c3ccc([N+](=O)[O-])cc3[N+](=O)[O-])cc2c1` (stereo not shown) [Compound 23, 2-Chloro-3-[3–(4-chlorophenyl)-1–(2,4-dinitrophenyl)-4,5-dihydro-1H-pyrazol-5-yl]-6-methoxyquinoline], the melting point was 143 to 144 °C. For the same compound, in the data set with MCF-7 (MCF7, read-out: IC50 MCF-7), the IC50 stood at 4.48 ± 0.1 µM. In the data set with HCT-116 (Homo sapiens, HCT-116, read-out: IC50 HCT-116), the concentration for half-maximal inhibition (IC50) was 1.78 ± 0.1 µM. Further, in the data set with HepG-2 (Homo sapiens, HepG2, read-out: IC50 HepG-2), the IC50 was determined as 2.64 ± 0.1 µM. In data set [1] (read-out: IC50 values ranging (all tested cell lines)), the IC50 was 1.78 to 9.19 µM.

Turning to `COc1ccc2nc(Cl)c(/C=C/C(=O)c3cc(OC)c(OC)c(OC)c3)cc2c1` [Compound 7, (E)-3–(2-Chloro-6-methoxyquinolin-3-yl)-1–(3,4,5-trimethoxyphenyl)prop-2-en-1-one], the melting point lay in the range of 127 to 128 °C. In addition, the concentration for half-maximal inhibition (IC50) with MCF-7 (setting [2]) was determined as 16.9 ± 1.2 µM. In the data set with HCT-116 (setting [3]), the concentration for half-maximal inhibition (IC50) turned out to be 25.1 ± 1.2 µM. Further, in the data set on HepG-2 (setting [5]), the IC50 was 23.6 ± 1.3 µM.

The compound `COc1ccc2nc(Cl)c(-c3cc(-c4cc(OC)c(OC)c(OC)c4)nc(N)n3)cc2c1` [Compound 31, 4–(2-Chloro-6-methoxyquinolin-3-yl)-6–(3,4,5-trimethoxyphenyl)pyrimidin-2-amine] came in with a melting point of 162 to 163 °C. In addition, in the data set with MCF-7 (setting [2]), the 50% inhibitory concentration (IC50) amounted to 15.2 ± 0.7 µM. In the data set with HCT-116 (setting [3]), the IC50 was 10.5 ± 0.4 µM. In the data set on HepG-2 (setting [5]), the 50% inhibitory concentration (IC50) came to 9.45 ± 0.5 µM.

Regarding `COc1ccc2nc(Cl)c(-c3cc(-c4cc(OC)c(OC)c(OC)c4)nc(=O)[nH]3)cc2c1` [Compound 34, 6–(2-Chloro-6-methoxyquinolin-3-yl)-4–(3,4,5-trimethoxyphenyl)pyrimidin-2(1H)-one], the melting point lay within 176 to 177 °C. In addition, the IC50 in the data set on MCF-7 (setting [2]) came out at 15.4 ± 0.8 µM. The IC50 in the data set with HCT-116 (setting [3]) amounted to 11.9 ± 0.4 µM. Besides, the half-maximal inhibitory concentration (IC50) with HepG-2 (setting [5]) worked out at 15.3 ± 0.4 µM. In data set [1] (setting [7]), the IC50 was 10.2 to 17.6 µM.

Consider `COc1ccc2nc(Cl)c(C3CC(c4ccc(Cl)cc4)=NO3)cc2c1` (stereo not shown) [Compound 11, 5–(2-Chloro-6-methoxyquinolin-3-yl)-3–(4-chlorophenyl)-4,5-dihydroisoxazole], for which the melting point lay within 145 to 146 °C. Besides, the IC50 with MCF-7 (setting [2]) was 22.8 ± 1.4 µM. Further, in the data set with HCT-116 (setting [3]), the IC50 is 19.7 ± 1.3 µM. Further, the half-inhibitory concentration (IC50) in the data set on HepG-2 (setting [5]) stood at 20.5 ± 1 µM.

As for `COc1ccc2nc(Cl)c(C3CC(c4ccc(N)cc4)=NN3)cc2c1` (stereo not shown) [Compound 9, 4-[5–(2-Chloro-6-methoxyquinolin-3-yl)-4,5-dihydro-1H-pyrazol-3-yl]aniline], the melting point is 122 to 123 °C. For the same compound, in the data set with MCF-7 (setting [2]), the IC50 is 20.5 ± 1.1 µM. The IC50 in the data set on HCT-116 (setting [3]) is 16.6 µM. Moreover, the IC50 in the data set on HCT-116 (setting [4]) stood at 17.4 ± 1 µM. Moreover, in the data set with HepG-2 (setting [5]), the IC50 amounted to 17.4 µM. The concentration for half-maximal inhibition (IC50) in the data set on HepG-2 (setting [6]) was 16.6 ± 0.8 µM.
